Values of other authors as cited in US11571385B2, “Self-emulsifiable composition, production method therefor, nanoemulsion, and production method therefor” (Kewpie Corporation, priority 2017, dated 2023).

Conditions: solubility in water, Japanese Pharmacopoeia class

Row | solubility | SMILES
1 | almost not soluble | COc1ccc2c(c1)c(CC(=O)O)c(C)n2C(=O)c1ccc(Cl)cc1 [Indomethacin, indomethacin]
2 | almost not soluble | COc1ccc2c(c1)c(CC(=O)OCC(=O)O)c(C)n2C(=O)c1ccc(Cl)cc1 [Acemetacin, acemetacin]
3 | almost not soluble | C=CC[C@@H]1/C=C(\C)C[C@H](C)C[C@H](OC)[C@H]2O[C@@](O)(C(=O)C(=O)N3CCCC[C@H]3C(=O)O[C@H](/C(C)=C/[C@@H]3CC[C@@H](O)[C@H](OC)C3)[C@H](C)[C@@H](O)CC1=O)[C@H](C)C[C@@H]2OC [Tacrolimus, tacrolimus]
